Data as given in ChEMBL document CHEMBL3991601, “The target landscape of clinical kinase drugs” (Science, 2017).
pKd: −log10 of the molar value. Calls of active or inactive are those of the source. For most assays here, no stated cut-off is given here; in the data, actives have a measured Kd and inactives only a lower limit.

Experiments:
[1] = target: cAMP-dependent protein kinase type II-alpha regulatory subunit (Homo sapiens, UniProt P13861)
[2] = target: Cyclin-dependent kinase 13 (Homo sapiens, UniProt Q14004)
Cyclin-dependent kinase 13, sequence (Q14004 whole entry): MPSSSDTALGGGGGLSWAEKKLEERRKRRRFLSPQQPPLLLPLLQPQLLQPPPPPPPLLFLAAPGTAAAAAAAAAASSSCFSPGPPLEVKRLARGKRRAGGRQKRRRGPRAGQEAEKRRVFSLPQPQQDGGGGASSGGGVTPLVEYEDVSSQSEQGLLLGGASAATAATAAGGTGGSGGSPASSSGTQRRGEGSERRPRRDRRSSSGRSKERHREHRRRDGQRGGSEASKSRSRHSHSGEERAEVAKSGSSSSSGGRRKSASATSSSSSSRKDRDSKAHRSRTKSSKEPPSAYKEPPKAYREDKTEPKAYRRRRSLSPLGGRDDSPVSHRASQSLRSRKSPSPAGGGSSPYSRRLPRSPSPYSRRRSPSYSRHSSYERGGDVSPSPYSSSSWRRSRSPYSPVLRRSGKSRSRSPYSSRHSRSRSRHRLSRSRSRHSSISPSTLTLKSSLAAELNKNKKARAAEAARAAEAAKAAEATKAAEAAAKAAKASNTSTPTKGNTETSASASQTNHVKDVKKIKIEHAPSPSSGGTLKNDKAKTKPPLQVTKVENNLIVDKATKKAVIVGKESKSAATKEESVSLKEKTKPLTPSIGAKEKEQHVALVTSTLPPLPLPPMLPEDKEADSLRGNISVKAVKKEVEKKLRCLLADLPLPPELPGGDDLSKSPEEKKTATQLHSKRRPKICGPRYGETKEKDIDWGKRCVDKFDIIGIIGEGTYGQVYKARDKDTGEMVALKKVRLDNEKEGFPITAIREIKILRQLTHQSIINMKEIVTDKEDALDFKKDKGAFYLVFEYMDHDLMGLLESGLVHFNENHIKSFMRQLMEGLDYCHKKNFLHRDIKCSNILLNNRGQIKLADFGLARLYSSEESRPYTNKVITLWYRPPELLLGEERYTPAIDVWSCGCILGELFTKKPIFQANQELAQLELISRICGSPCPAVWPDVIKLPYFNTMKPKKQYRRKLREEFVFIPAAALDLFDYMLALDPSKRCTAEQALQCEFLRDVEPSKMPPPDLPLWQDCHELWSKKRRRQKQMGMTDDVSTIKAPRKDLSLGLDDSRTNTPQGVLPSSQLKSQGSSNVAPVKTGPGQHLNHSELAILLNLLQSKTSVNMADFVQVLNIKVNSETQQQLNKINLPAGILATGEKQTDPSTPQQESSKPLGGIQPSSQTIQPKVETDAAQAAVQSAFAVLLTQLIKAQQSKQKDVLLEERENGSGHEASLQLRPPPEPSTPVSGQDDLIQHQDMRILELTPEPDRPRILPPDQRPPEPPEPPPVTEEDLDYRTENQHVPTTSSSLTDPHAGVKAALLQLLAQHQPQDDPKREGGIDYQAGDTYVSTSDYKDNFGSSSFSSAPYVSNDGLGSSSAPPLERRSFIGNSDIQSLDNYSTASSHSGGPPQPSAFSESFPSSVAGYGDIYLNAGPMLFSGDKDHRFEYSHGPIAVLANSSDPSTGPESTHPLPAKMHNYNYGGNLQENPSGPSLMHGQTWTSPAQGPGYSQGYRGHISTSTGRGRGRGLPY

[3] = target: RAC-gamma serine/threonine-protein kinase (Homo sapiens, UniProt Q9Y243)
RAC-gamma serine/threonine-protein kinase, sequence (Q9Y243 whole entry): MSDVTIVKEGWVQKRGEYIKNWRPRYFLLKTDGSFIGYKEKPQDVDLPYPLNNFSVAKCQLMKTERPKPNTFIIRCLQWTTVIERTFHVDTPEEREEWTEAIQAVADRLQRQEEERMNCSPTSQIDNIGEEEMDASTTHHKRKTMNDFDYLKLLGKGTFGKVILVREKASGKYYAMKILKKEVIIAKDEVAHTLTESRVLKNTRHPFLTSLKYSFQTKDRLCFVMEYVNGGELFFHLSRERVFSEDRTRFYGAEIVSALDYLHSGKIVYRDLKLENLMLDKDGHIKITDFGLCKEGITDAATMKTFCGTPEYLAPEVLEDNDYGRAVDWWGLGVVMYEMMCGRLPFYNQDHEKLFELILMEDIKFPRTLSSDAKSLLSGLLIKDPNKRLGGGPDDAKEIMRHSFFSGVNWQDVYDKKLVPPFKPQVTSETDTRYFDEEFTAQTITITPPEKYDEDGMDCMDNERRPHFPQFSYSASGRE

[4] = target: Mitogen-activated protein kinase 8 (Homo sapiens, UniProt P45983)
Mitogen-activated protein kinase 8, sequence (P45983 whole entry): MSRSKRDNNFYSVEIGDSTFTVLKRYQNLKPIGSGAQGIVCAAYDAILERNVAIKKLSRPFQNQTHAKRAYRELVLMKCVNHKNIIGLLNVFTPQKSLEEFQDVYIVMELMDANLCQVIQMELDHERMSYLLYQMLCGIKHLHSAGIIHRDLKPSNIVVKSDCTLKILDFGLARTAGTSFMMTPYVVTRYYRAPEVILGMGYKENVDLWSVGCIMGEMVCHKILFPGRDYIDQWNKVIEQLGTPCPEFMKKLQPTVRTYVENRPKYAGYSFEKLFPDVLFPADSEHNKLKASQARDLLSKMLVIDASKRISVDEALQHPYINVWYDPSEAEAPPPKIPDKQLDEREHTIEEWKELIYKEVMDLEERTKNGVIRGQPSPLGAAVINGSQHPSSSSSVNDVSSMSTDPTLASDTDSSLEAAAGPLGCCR

[5] = target: Cyclin-dependent kinase 12 (Homo sapiens, UniProt Q9NYV4)
[6] = target: Mitogen-activated protein kinase 3 (Homo sapiens, UniProt P27361)
Mitogen-activated protein kinase 3, sequence (P27361 whole entry, canonical isoform): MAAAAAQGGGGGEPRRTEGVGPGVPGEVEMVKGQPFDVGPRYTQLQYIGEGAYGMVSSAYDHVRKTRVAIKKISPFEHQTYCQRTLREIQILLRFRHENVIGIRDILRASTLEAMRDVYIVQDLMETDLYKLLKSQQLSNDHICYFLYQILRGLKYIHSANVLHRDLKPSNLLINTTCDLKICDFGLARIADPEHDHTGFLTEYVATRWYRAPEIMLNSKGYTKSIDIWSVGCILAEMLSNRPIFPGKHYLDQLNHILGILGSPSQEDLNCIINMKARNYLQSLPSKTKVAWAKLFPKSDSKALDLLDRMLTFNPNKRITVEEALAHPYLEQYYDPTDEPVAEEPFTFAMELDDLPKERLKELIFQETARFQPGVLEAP

[7] = target: Casein kinase I isoform gamma-1 (Homo sapiens, UniProt Q9HCP0)
Casein kinase I isoform gamma-1, sequence (Q9HCP0 whole entry, canonical isoform): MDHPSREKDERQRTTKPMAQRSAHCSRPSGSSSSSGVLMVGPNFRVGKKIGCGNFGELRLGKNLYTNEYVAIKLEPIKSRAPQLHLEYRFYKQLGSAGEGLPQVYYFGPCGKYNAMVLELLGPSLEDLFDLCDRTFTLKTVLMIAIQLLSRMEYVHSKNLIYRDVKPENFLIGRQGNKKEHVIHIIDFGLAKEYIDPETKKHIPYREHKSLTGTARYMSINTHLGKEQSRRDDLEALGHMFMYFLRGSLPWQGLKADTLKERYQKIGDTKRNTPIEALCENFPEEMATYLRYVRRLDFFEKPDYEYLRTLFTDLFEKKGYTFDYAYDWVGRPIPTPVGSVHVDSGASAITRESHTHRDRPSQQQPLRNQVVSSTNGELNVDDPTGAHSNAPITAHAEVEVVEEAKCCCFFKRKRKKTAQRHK

[8] = target: Glycogen synthase kinase-3 alpha (Homo sapiens, UniProt P49840)
[9] = target: T1, Serine/threonine-protein kinase Chk1 (Homo sapiens, UniProt O14757)
T1 sequence (O14757 whole entry): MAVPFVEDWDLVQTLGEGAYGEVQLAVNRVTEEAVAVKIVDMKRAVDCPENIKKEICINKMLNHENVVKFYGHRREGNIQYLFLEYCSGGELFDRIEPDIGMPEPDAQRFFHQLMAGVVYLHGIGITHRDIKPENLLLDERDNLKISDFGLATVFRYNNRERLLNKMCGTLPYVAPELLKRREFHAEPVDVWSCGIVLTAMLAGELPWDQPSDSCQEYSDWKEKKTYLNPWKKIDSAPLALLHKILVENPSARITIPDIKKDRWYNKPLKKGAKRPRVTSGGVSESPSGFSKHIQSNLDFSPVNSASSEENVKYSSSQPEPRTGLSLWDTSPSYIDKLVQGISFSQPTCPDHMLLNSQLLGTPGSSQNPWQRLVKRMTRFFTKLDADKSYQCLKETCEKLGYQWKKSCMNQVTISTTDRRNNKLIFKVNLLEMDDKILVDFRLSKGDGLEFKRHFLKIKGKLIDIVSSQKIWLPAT

[10] = target: Inosine-5'-monophosphate dehydrogenase 2 (Homo sapiens, UniProt P12268)
[11] = target: GTP-binding nuclear protein Ran (Homo sapiens, UniProt P62826)
[12] = target: Bone morphogenetic protein receptor type-1A (Homo sapiens, UniProt P36894)
[13] = target: Tyrosine-protein kinase JAK1 (Homo sapiens, UniProt P23458)
[14] = target: LIM domain kinase 2 (Homo sapiens, UniProt P53671)
LIM domain kinase 2, sequence (P53671 whole entry, the tested form may be a part): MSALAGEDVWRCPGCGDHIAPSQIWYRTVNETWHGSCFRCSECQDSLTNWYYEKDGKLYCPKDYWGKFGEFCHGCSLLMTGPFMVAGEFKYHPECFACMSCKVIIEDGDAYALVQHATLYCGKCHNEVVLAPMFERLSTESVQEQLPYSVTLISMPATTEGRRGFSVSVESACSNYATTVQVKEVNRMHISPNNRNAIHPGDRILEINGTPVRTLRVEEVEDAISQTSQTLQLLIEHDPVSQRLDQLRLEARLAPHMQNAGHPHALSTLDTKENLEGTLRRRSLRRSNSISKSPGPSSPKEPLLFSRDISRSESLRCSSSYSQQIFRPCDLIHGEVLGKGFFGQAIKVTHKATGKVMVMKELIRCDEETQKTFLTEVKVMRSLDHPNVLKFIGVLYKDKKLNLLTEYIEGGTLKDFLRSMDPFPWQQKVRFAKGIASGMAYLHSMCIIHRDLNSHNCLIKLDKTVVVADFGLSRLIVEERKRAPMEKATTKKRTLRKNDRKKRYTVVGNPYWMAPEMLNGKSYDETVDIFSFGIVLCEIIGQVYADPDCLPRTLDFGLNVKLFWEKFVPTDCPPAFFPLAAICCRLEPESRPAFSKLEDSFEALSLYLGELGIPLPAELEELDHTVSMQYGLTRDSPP

[15] = target: Ephrin type-A receptor 4 (Homo sapiens, UniProt P54764)
[16] = target: T2, Breakpoint cluster region protein (Homo sapiens, UniProt P11274)
T2 sequence (P11274 whole entry): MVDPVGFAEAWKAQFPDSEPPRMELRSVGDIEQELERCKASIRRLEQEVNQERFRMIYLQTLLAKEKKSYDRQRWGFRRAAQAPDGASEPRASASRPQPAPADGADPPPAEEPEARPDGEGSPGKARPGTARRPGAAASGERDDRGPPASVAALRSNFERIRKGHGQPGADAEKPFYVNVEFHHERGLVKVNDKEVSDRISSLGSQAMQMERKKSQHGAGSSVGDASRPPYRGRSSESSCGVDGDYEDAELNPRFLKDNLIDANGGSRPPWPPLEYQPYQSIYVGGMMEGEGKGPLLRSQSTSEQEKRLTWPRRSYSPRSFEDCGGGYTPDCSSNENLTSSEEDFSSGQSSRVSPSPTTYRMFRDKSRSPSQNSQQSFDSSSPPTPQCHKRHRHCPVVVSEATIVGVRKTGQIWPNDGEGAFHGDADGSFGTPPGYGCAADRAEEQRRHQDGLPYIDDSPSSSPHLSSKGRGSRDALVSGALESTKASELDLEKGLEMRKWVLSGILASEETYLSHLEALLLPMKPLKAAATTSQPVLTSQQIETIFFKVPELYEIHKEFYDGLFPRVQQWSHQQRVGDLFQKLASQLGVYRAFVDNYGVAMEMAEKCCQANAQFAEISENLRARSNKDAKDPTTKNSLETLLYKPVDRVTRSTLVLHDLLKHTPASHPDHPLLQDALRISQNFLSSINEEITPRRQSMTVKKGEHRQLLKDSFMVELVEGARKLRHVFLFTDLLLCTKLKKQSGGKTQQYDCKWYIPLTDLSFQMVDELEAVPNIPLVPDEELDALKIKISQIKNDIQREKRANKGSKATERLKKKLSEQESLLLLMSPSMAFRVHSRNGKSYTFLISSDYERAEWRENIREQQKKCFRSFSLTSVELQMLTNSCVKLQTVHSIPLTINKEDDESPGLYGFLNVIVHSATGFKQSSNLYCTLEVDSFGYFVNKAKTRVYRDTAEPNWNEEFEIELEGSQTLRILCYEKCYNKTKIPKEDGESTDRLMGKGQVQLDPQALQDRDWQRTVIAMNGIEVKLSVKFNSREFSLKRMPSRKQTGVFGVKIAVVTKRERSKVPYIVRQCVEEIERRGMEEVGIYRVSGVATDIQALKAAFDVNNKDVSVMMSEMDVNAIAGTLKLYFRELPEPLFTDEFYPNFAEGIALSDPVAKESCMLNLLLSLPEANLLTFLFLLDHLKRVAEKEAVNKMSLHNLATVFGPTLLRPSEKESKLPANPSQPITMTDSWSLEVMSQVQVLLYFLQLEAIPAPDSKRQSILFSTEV

[17] = target: Ribosomal protein S6 kinase alpha-4 (Homo sapiens, UniProt O75676)
Ribosomal protein S6 kinase alpha-4, sequence (O75676 whole entry): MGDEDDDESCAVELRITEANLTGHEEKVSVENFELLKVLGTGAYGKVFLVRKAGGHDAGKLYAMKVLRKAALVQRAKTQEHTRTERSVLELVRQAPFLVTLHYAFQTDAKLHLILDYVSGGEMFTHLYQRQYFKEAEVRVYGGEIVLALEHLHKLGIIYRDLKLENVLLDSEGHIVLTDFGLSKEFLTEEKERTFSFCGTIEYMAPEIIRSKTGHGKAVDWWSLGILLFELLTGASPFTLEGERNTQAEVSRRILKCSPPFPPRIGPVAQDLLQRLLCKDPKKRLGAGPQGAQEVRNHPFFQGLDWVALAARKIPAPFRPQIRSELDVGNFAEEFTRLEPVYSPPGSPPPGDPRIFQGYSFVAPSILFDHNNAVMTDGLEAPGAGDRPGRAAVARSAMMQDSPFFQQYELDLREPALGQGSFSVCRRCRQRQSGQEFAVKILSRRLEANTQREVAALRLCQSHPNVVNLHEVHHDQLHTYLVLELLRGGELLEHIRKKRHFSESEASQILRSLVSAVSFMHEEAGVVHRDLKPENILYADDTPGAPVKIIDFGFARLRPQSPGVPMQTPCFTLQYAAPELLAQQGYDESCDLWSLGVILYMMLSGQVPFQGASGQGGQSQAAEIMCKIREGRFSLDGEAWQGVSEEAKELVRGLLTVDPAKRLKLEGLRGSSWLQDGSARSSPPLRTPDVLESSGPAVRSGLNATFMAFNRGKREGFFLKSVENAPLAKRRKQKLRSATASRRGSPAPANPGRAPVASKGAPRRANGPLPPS

cAMP-dependent protein kinase type II-alpha regulatory subunit, sequence (P13861 whole entry): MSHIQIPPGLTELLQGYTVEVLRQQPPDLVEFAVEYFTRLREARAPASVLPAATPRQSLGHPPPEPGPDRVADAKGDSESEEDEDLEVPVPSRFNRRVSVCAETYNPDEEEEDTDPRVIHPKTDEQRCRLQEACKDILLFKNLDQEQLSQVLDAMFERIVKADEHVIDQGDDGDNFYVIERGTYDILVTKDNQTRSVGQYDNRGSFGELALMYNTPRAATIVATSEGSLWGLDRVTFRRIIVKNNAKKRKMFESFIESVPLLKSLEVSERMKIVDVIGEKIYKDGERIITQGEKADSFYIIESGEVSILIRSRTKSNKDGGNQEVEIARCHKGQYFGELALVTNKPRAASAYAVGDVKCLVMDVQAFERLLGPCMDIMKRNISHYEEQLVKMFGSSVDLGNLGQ

SMILES | Kd [1] | Kd [2] | Kd [3] | Kd [4] | Kd [5] | Kd [6] | Kd [7] | Kd [8] | Kd [9] | Kd [10] | Kd [11] | Kd [12] | Kd [13] | Kd [14] | Kd [15] | Kd [16] | Kd [17] | pKd [7] | pKd [3]
N[C@@H]1CCCN(c2c(/C=C3\SC(=O)NC3=O)cccc2-c2ccccc2)C1 | > 30 µM (inactive) | > 30 µM (inactive) | > 30 µM (inactive) | > 30 µM (inactive) | > 30 µM (inactive) | > 30 µM (inactive) | > 30 µM (inactive) | > 30 µM (inactive) | > 30 µM (inactive) | > 30 µM (inactive) | > 30 µM (inactive) | > 30 µM (inactive) | > 30 µM (inactive) | > 30 µM (inactive) | > 30 µM (inactive) | > 30 µM (inactive) | > 30 µM (inactive) | – | –
CN1CC[C@@H](c2c(O)cc(O)c3c(=O)cc(-c4ccccc4Cl)oc23)[C@@H]1CO | > 30 µM (inactive) | > 30 µM (inactive) | – | > 30 µM (inactive) | 3.16 µM (active) | > 30 µM (inactive) | > 30 µM (inactive) | > 30 µM (inactive) | > 30 µM (inactive) | > 30 µM (inactive) | > 30 µM (inactive) | > 30 µM (inactive) | > 30 µM (inactive) | > 30 µM (inactive) | > 30 µM (inactive) | > 30 µM (inactive) | > 30 µM (inactive) | – | 5.23
Cc1cc(-c2cc(O)ccc2Cl)cc2nnc(Nc3ccc(OCCN4CCCC4)cc3)nc12 | > 30 µM (inactive) | > 30 µM (inactive) | > 30 µM (inactive) | > 30 µM (inactive) | > 30 µM (inactive) | > 30 µM (inactive) | > 30 µM (inactive) | > 30 µM (inactive) | > 30 µM (inactive) | > 30 µM (inactive) | > 30 µM (inactive) | > 30 µM (inactive) | > 30 µM (inactive) | > 30 µM (inactive) | 0.002 µM (active) | 0.001 µM (active) | > 30 µM (inactive) | – | –
CCS(=O)(=O)N1CC(CC#N)(n2cc(-c3ncnc4[nH]ccc34)cn2)C1 [BARICITINIB] | > 30 µM (inactive) | > 30 µM (inactive) | > 30 µM (inactive) | > 30 µM (inactive) | > 30 µM (inactive) | > 30 µM (inactive) | – | > 30 µM (inactive) | > 30 µM (inactive) | > 30 µM (inactive) | > 30 µM (inactive) | > 30 µM (inactive) | – | > 30 µM (inactive) | > 30 µM (inactive) | > 30 µM (inactive) | > 30 µM (inactive) | 5.76 | –
CC[C@H](Nc1ncnc2[nH]cnc12)c1nc2cccc(F)c2c(=O)n1-c1ccccc1 [IDELALISIB] | > 30 µM (inactive) | > 30 µM (inactive) | > 30 µM (inactive) | > 30 µM (inactive) | > 30 µM (inactive) | > 30 µM (inactive) | > 30 µM (inactive) | > 30 µM (inactive) | > 30 µM (inactive) | > 30 µM (inactive) | – | > 30 µM (inactive) | > 30 µM (inactive) | > 30 µM (inactive) | > 30 µM (inactive) | > 30 µM (inactive) | > 30 µM (inactive) | – | –
Cc1c(F)cc(C(=O)NC2CC2)cc1-c1ccc(C(=O)NCC(C)(C)C)cn1 [LOSMAPIMOD] | > 30 µM (inactive) | > 30 µM (inactive) | > 30 µM (inactive) | > 30 µM (inactive) | > 30 µM (inactive) | > 30 µM (inactive) | > 30 µM (inactive) | > 30 µM (inactive) | > 30 µM (inactive) | > 30 µM (inactive) | – | > 30 µM (inactive) | > 30 µM (inactive) | > 30 µM (inactive) | > 30 µM (inactive) | > 30 µM (inactive) | > 30 µM (inactive) | – | –
Cc1ccc(-n2nc(C(C)(C)C)cc2NC(=O)NCc2cc(F)ccc2Oc2ccc3c(cnn3CCO)c2)cc1 [PEXMETINIB] | – | > 30 µM (inactive) | > 30 µM (inactive) | > 30 µM (inactive) | > 30 µM (inactive) | > 30 µM (inactive) | > 30 µM (inactive) | > 30 µM (inactive) | > 30 µM (inactive) | > 30 µM (inactive) | > 30 µM (inactive) | > 30 µM (inactive) | > 30 µM (inactive) | > 30 µM (inactive) | > 30 µM (inactive) | 0.681 µM (active) | > 30 µM (inactive) | – | –

Second part, led by results:

Kd [1] | Kd [2] | Kd [3] | Kd [4] | Kd [5] | Kd [6] | Kd [7] | Kd [8] | Kd [9] | Kd [10] | Kd [11] | Kd [12] | Kd [13] | Kd [14] | Kd [15] | Kd [16] | Kd [17] | pKd [7] | SMILES | pKd [3]
> 30 µM (inactive) | > 30 µM (inactive) | > 30 µM (inactive) | > 30 µM (inactive) | > 30 µM (inactive) | > 30 µM (inactive) | > 30 µM (inactive) | > 30 µM (inactive) | > 30 µM (inactive) | > 30 µM (inactive) | > 30 µM (inactive) | > 30 µM (inactive) | > 30 µM (inactive) | 21.8 µM (active) | > 30 µM (inactive) | 0.495 µM (active) | > 30 µM (inactive) | – | CCN1CCN(Cc2ccc(-c3cc4c(N[C@H](C)c5ccccc5)ncnc4[nH]3)cc2)CC1 [AEE-788] | –
– | > 30 µM (inactive) | > 30 µM (inactive) | > 30 µM (inactive) | > 30 µM (inactive) | > 30 µM (inactive) | > 30 µM (inactive) | > 30 µM (inactive) | > 30 µM (inactive) | > 30 µM (inactive) | > 30 µM (inactive) | > 30 µM (inactive) | > 30 µM (inactive) | > 30 µM (inactive) | > 30 µM (inactive) | > 30 µM (inactive) | > 30 µM (inactive) | – | Cn1cc(-c2ccc(F)c(C(F)(F)F)c2)nc1C1CCN(c2ncnc3[nH]ncc23)CC1 [LY-2584702] | –
– | > 30 µM (inactive) | > 30 µM (inactive) | > 30 µM (inactive) | > 30 µM (inactive) | > 30 µM (inactive) | > 30 µM (inactive) | > 30 µM (inactive) | > 30 µM (inactive) | > 30 µM (inactive) | > 30 µM (inactive) | > 30 µM (inactive) | > 30 µM (inactive) | > 30 µM (inactive) | > 30 µM (inactive) | > 30 µM (inactive) | > 30 µM (inactive) | – | CNC(=O)c1ccc(C)c(-n2c(C)cc(OCc3ccc(F)cc3F)c(Br)c2=O)c1 [PH-797804] | –
